In ChEMBL document CHEMBL4138213, “Synthesis and biological characterization of ubenimex-fluorouracil conjugates for anti-cancer therapy” (Eur J Med Chem, 2018):
The source made the active and inactive calls. No cut-off for these calls is given here.

Legend:
PLC-PRF-5 [1] = assay: Antiproliferative activity against human PLC/PRF/5 cells after 48 hrs by MTT assay; conditions: PLC-PRF-5, 48 h
PLC-PRF-5 [2] = assay: Antiproliferative activity against human PLC/PRF/5 cells in presence of ubenimex after 48 hrs by MTT assay; assay type: functional, cell-based; conditions: PLC-PRF-5, 48 h
U-266 [3] = assay: Antiproliferative activity against human U266 cells after 48 hrs by MTT assay; conditions: U-266, 48 h
A549 = assay: Antiproliferative activity against human A549 cells after 48 hrs by MTT assay; conditions: A549, 48 h
[4] = Antiproliferative activity against human H7402 cells after 48 hrs by MTT assay; conditions: H7402, 48 h
U-937 [5] = assay: Antiproliferative activity against human U937 cells in presence of ubenimex after 48 hrs by MTT assay; assay type: functional, cell-based; conditions: U-937, 48 h
U-266 [6] = assay: Antiproliferative activity against human U266 cells in presence of ubenimex after 48 hrs by MTT assay; assay type: functional, cell-based; conditions: U-266, 48 h
PLC-PRF-5 [7] = assay: Induction of apoptosis in human PLC/PRF/5 cells assessed as early apoptotic cells at 20 uM after 48 hrs by annexin-V-FITC/propidium iodide staining-based flow cytometric method (reference value: 5.82%); assay type: functional
PLC-PRF-5 [8] = assay: Induction of apoptosis in human PLC/PRF/5 cells assessed as late apoptotic cells at 20 uM after 48 hrs by annexin-V-FITC/propidium iodide staining-based flow cytometric method (reference value: 0.341%); assay type: functional
PLC-PRF-5 [9] = assay: Induction of apoptosis in human PLC/PRF/5 cells assessed as necrotic cells at 20 uM after 48 hrs by annexin-V-FITC/propidium iodide staining-based flow cytometric method (reference value: 0.106%); assay type: functional
PLC-PRF-5 [10] = assay: Induction of apoptosis in human PLC/PRF/5 cells assessed as viable cells at 20 uM after 48 hrs by annexin-V-FITC/propidium iodide staining-based flow cytometric method (reference value: 93.7%); assay type: functional; conditions: PLC-PRF-5, 48 h, read-out: Activity
PLC-PRF-5 [11] = assay: Induction of apoptosis in human PLC/PRF/5 cells assessed as early apoptotic cells at 20 uM in presence of ubenimex after 48 hrs by annexin-V-FITC/propidium iodide staining-based flow cytometric method (reference value: 5.82%); assay type: functional
PLC-PRF-5 [12] = assay: Induction of apoptosis in human PLC/PRF/5 cells assessed as late apoptotic cells at 20 uM in presence of ubenimex after 48 hrs by annexin-V-FITC/propidium iodide staining-based flow cytometric method (reference value: 0.341%); assay type: functional
PLC-PRF-5 [13] = assay: Induction of apoptosis in human PLC/PRF/5 cells assessed as necrotic cells at 20 uM in presence of ubenimex after 48 hrs by annexin-V-FITC/propidium iodide staining-based flow cytometric method (reference value: 0.106%); assay type: functional
PLC-PRF-5 [14] = assay: Induction of apoptosis in human PLC/PRF/5 cells assessed as viable cells at 20 uM in presence of ubenimex after 48 hrs by annexin-V-FITC/propidium iodide staining-based flow cytometric method (reference value: 93.7%); assay type: functional; conditions: PLC-PRF-5, 48 h, read-out: Activity
PLC-PRF-5 [15] = assay: Downregulation of CD13 expression in human PLC/PRF/5 cells at 10 uM after 48 hrs by flow cytometric method; assay type: functional, cell-based
PLC-PRF-5 [16] = assay: Downregulation of CD13 expression in human PLC/PRF/5 cells at 10 uM in presence of ubenimex after 48 hrs by flow cytometric method; assay type: functional, cell-based
[17] = Drug level in human plasma treated with (5-fluoro-2,4-dioxo-3,4-dihydropyrimidin1(2H)-yl)methyl-2-((S)-2-((2S,3R)-3-amino-2-hydroxy-4-phenylbut-anamido)-4-methylpentanamido)acetate hydrochloride at 4 mg/ml after 8 hrs by HPLC method; assay type: ADME, cell-free
[18] = Drug level in Wistar rat plasma treated with (5-fluoro-2,4-dioxo-3,4-dihydropyrimidin1(2H)-yl)methyl-2-((S)-2-((2S,3R)-3-amino-2-hydroxy-4-phenylbut-anamido)-4-methylpentanamido)acetate hydrochloride assessed as carboxylesterase-mediated compound formation at 80 mg/kg, iv by HPLC-MS/MS analysis; assay type: ADME, organism-based; conditions: in vivo
H22 = assay: Antitumor activity against 5-FU-resistant […] cells xenografted in Kunming mouse at 20 mg/kg, ip after 14 days; assay type: functional, organism-based
[19] = AUC (0 to infinity) in Wistar rat at 80 mg/kg, iv after 0.05 to 24 hrs by HPLC-MS/MS analysis; assay type: ADME, organism-based; parameters: dose 80 mg/kg, time infinity, route intravenous; conditions: in vivo
[20] = MRT (0 to infinity) in Wistar rat at 80 mg/kg, iv after 0.05 to 24 hrs by HPLC-MS/MS analysis; assay type: ADME, organism-based; conditions: Wistar, in vivo
Rattus norvegicus = assay: VRT (0 to infinity) in Wistar rat at 80 mg/kg, iv after 0.05 to 24 hrs by HPLC-MS/MS analysis; assay type: ADME, organism-based; conditions: in vivo
[21] = Apparent clearance in Wistar rat at 80 mg/kg, iv after 0.05 to 24 hrs by HPLC-MS/MS analysis; assay type: ADME, organism-based; conditions: in vivo, read-out: CL(app) (converted)
[22] = Volume of distribution during elimination phase in Wistar rat at 80 mg/kg, iv after 0.05 to 24 hrs by HPLC-MS/MS analysis; assay type: ADME, organism-based; conditions: in vivo, read-out: Vz
[23] = Terminal Half life in Wistar rat at 80 mg/kg, iv after 0.05 to 24 hrs by HPLC-MS/MS analysis; assay type: ADME, organism-based; conditions: Wistar, in vivo, read-out: beta t1/2 (converted)
[24] = Cmax in Wistar rat at 80 mg/kg, iv after 0.05 to 24 hrs by HPLC-MS/MS analysis; assay type: ADME, organism-based; parameters: dose 80 mg/kg, route intravenous; conditions: in vivo
cells [25] = conditions: Homo sapiens, ES-2, 48 h
Description: Antiproliferative activity against human ES2 cells after 48 hrs by MTT assay

cells [26] = conditions: Homo sapiens, ES-2, 48 h; remark: listed apart in the source
U-937 [27] = assay: cells; conditions: Homo sapiens, U-937, 48 h
Description: Antiproliferative activity against human U937 cells after 48 hrs by MTT assay

HCT-116 [28] = assay: cells; conditions: Homo sapiens, HCT-116, 48 h
HepG2 [29] = assay: cells; conditions: Homo sapiens, HepG2, 48 h
HCT-116 [30] = assay: cells; conditions: Homo sapiens, HCT-116, 48 h; remark: listed apart in the source
cells [31] = conditions: Homo sapiens, H7402, 48 h
HepG2 [32] = assay: cells; conditions: Homo sapiens, HepG2, 48 h; remark: listed apart in the source

SMILES: O=c1[nH]cc(F)c(=O)[nH]1 [FLUOROURACIL]
- IC50 (PLC-PRF-5 [1]): 35.7 µM
- IC50 (PLC-PRF-5 [2]): 22.8 µM
- IC50 (U-266 [3]): 66.2 µM
- IC50 (A549): 17 µM
- IC50 [4]: 21.9 µM
- IC50 (U-937 [5]): 9.56 µM
- IC50 (U-266 [6]): 43.5 µM
- Activity (PLC-PRF-5 [7]): 20.1%
- Activity (PLC-PRF-5 [8]): 6.8%
- Activity (PLC-PRF-5 [9]): 0%
- viability at 20 µM (PLC-PRF-5 [10]): 73.1%
- Activity (PLC-PRF-5 [11]): 33.3%
- Activity (PLC-PRF-5 [12]): 2.38%
- Activity (PLC-PRF-5 [13]): 0%
- viability at 20 µM (PLC-PRF-5 [14]): 64.3%
- Activity (PLC-PRF-5 [15]): inactive
- Activity (PLC-PRF-5 [16]): Active
- Drug metabolism [17]: Metabolite_Detected
- Drug metabolism [18]: Metabolite_Detected
- Activity (H22): inactive
- AUC(0-inf) [19]: 13.6 µg·h/mL
- MRT inf [20]: 2.48 h
- VRT (Rattus norvegicus): 4.205 hr2
- clearance [21]: 5.9 L/h/kg
- Vd [22]: 20.1 L/kg
- half-life [23]: 2.35 h
- Cmax [24]: 3.81 µg/mL
- IC50 (cells [25]): 71.5 µM
- IC50 (cells [26]): 37.1 µM
- IC50 (U-937 [27]): 28.8 µM
- IC50 (HCT-116 [28]): 53.8 µM
- IC50 (HepG2 [29]): 18.4 µM
- IC50 (HCT-116 [30]): 44.1 µM
- IC50 (cells [31]): 17.6 µM
- IC50 (HepG2 [32]): 14.5 µM
